In patent US10280166B2, “2-(1H-indazol-3-yl)-3H-imidazo[4,5-B]pyridine and therapeutic uses thereof” (Samumed, LLC, priority 2014, dated 2019):
pIC50: −log10 of the molar value.

Test system: Wnt activity (SW480 colon carcinoma cells stably expressing the Sp5-Luc reporter gene)
Assay: Sp5-Luc reporter gene screening assay for Wnt activity in SW480 cells
Type: cell-based
Settings: Homo sapiens, 42 h incubation, luminescence
Description: The screening assay for Wnt activity is described as follows. Reporter cell lines can be generated by stably transducing cancer cell lines (e.g., colon cancer) or primary cells (e.g., IEC-6 intestinal cells) with a lentiviral construct that includes a Wnt-responsive promoter driving expression of the firefly luciferase gene.
SW480 colon carcinoma cells were transduced with a lentiviral vector expressing luciferase with a human Sp5 promoter consisting of a sequence of eight TCF/LEF binding sites. SW480 cells stably expressing the Sp5-Luc reporter gene and a hygromycin resistance gene were selected by treatment with 150 μg/ml of hygromycin for 7 days. These stably transduced SW480 cells were expanded in cell culture and used for all further screening activities. For Sp5-Luc reporter gene assays, the cells were plated at 10,000 cells/well in 96-well plates with growth medium containing 10% fetal calf serum and incubated overnight at 37° C. and 5% CO2. Each compound was dissolved in DMSO as a 10 mM stock in standard j-vials and used to prepare compound source plates in dose-response format with 3-fold serial dilutions and a 10 mM top concentration. Compound transfer from serially diluted source plates to assay plates containing the cells was accomplished using a pintool (Multimek 96, Beckman equipped with V&P Scientific FP1S50H pins) based liquid handling protocol. This protocol used a slotted pin to transfer 50 nl of compound from a source plate well to an assay plate well containing 50 μl of cells in growth medium. […] Control wells received 50 nl of DMSO treatment for normalization and calculating IC50 values. The treated cells were incubated at 37° C. and 5% CO2 for an additional forty-two hours. Following incubation, the growth medium was removed and 50 μl of BrightGlo luminescence reagent (Promega) was added to each well of the 96-well assay plates. The plates were placed on an orbital shaker for 5 min and then luminescence was quantified on the Victor3 (Perkin Elmer) plate reader. Readings were normalized to DMSO only treated cells, and normalized activities were utilized for IC50 calculations using the dose-response log (inhibitor) vs. response—variable slope (four parameters) nonlinear regression feature available in GraphPad Prism 5.0 or 6.0.

SMILES	pIC50
CC(C)CC(=O)Nc1cncc(-c2ccc3[nH]nc(-c4nc5c(-c6ccc(F)cc6)ccnc5[nH]4)c3c2)c1 [Compound 28, N-(5-(3-(7-(4-Fluorophenyl)-3H-imidazo[4,5-b]pyridin-2-yl)-1H-indazol-5-yl)pyridin-3-yl)-3-methylbutanamide]	8.40
CC(C)(C)CC(=O)Nc1cncc(-c2ccc3[nH]nc(-c4nc5c(-c6ccccc6F)ccnc5[nH]4)c3c2)c1 [Compound 68, N-(5-(3-(7-(2-Fluorophenyl)-3H-imidazo[4,5-b]pyridin-2-yl)-1H-indazol-5-yl)pyridin-3-yl)-3,3-dimethylbutanamide]	7.28
CC(C)C(=O)Nc1cncc(-c2ccc3[nH]nc(-c4nc5c(-c6cccnc6)ccnc5[nH]4)c3c2)c1 [Compound 87, N-(5-(3-(7-(Pyridin-3-yl)-3H-imidazo[4,5-b]pyridin-2-yl)-1H-indazol-5-yl)pyridin-3-yl)isobutyramide]	8.17
O=C(Cc1ccccc1)Nc1cncc(-c2ccc3[nH]nc(-c4nc5c(-c6ccncc6)ccnc5[nH]4)c3c2)c1 [Compound 114, 2-Phenyl-N-(5-(3-(7-(pyridin-4-yl)-3H-imidazo[4,5-b]pyridin-2-yl)-1H-indazol-5-yl)pyridin-3-yl)acetamide]	7.27
CCCC(=O)Nc1cncc(-c2ccc3[nH]nc(-c4nc5c(-c6ccncc6)ccnc5[nH]4)c3c2)c1 [Compound 121, N-(5-(3-(7-(Pyridin-4-yl)-3H-imidazo[4,5-b]pyridin-2-yl)-1H-indazol-5-yl)pyridin-3-yl)butyramide]	7.46
O=C(Nc1cncc(-c2ccc3[nH]nc(-c4nc5c(-c6ccncc6)ccnc5[nH]4)c3c2)c1)C1CCCCC1 [Compound 126, N-(5-(3-(7-(Pyridin-4-yl)-3H-imidazo[4,5-b]pyridin-2-yl)-1H-indazol-5-yl)pyridin-3-yl)cyclohexanecarboxamide]	7.51
CN1CCN(c2ccnc3[nH]c(-c4n[nH]c5ccc(-c6cncc(N)c6)cc45)nc23)CC1 [Compound 211, 5-(3-(7-(4-Methylpiperazin-1-yl)-3H-imidazo[4,5-b]pyridin-2-yl)-1H-indazol-5-yl)pyridin-3-amine]	7.18
O=C(Cc1ccccc1)Nc1cncc(-c2ccc3[nH]nc(-c4nc5cccnc5[nH]4)c3c2)c1 [Compound 244, N-(5-(3-(3H-Imidazo[4,5-b]pyridin-2-yl)-1H-indazol-5-yl)pyridin-3-yl)-2-phenylacetamide]	6.45
CC(C)(C)C(=O)Nc1cncc(-c2ccc3[nH]nc(-c4nc5c(-c6ccsc6)ccnc5[nH]4)c3c2)c1 [Compound 268, N-(5-(3-(7-(Thiophen-3-yl)-3H-imidazo[4,5-b]pyridin-2-yl)-1H-indazol-5-yl)pyridin-3-yl)pivalamide]	8.19
CN(C)c1cncc(-c2ccc3[nH]nc(-c4nc5c(-c6cccs6)ccnc5[nH]4)c3c2)c1 [Compound 319, N,N-Dimethyl-5-(3-(7-(thiophen-2-yl)-3H-imidazo[4,5-b]pyridin-2-yl)-1H-indazol-5-yl)pyridin-3-amine]	7.20
CC(C)C(=O)Nc1cncc(-c2ccc3[nH]nc(-c4nc5c(-c6cccs6)ccnc5[nH]4)c3c2)c1 [Compound 321, N-(5-(3-(7-(Thiophen-2-yl)-3H-imidazo[4,5-b]pyridin-2-yl)-1H-indazol-5-yl)pyridin-3-yl)isobutyramide]	7.39
CC(C)CC(=O)Nc1cncc(-c2ccc3[nH]nc(-c4nc5c(-c6ccc(F)s6)ccnc5[nH]4)c3c2)c1 [Compound 340, N-(5-(3-(7-(5-Fluorothiophen-2-yl)-3H-imidazo[4,5-b]pyridin-2-yl)-1H-indazol-5-yl)pyridin-3-yl)-3-methylbutanamide]	8.31
O=C(Nc1cncc(-c2ccc3[nH]nc(-c4nc5c(-c6ccc(F)s6)ccnc5[nH]4)c3c2)c1)C1CCC1 [Compound 358, N-(5-(3-(7-(5-Fluorothiophen-2-yl)-3H-imidazo[4,5-b]pyridin-2-yl)-1H-indazol-5-yl)pyridin-3-yl)cyclobutanecarboxamide]	8.16
CS(=O)(=O)NCc1cc(F)cc(-c2ccnc3[nH]c(-c4n[nH]c5ccc(-c6cncc(NC(=O)c7ccccc7)c6)cc45)nc23)c1 [Compound 427, N-(5-(3-(7-(3-Fluoro-5-(methylsulfonamidomethyl)phenyl)-3H-imidazo[4,5-b]pyridin-2-yl)-1H-indazol-5-yl)pyridin-3-yl)benzamide]	7.72
CS(=O)(=O)NCc1cc(F)cc(-c2ccnc3[nH]c(-c4n[nH]c5ccc(-c6cncnc6)cc45)nc23)c1 [Compound 442, N-(3-Fluoro-5-(2-(5-(pyrimidin-5-yl)-1H-indazol-3-yl)-3H-imidazo[4,5-b]pyridin-7-yl)benzyl)methanesulfonamide]	8.24
CN(C)Cc1cncc(-c2cc(F)c3[nH]nc(-c4nc5c(-c6cccc(F)c6)ccnc5[nH]4)c3c2)c1 [Compound 481, 1-(5-(7-fluoro-3-(7-(3-fluorophenyl)-3H-imidazo[4,5-b]pyridin-2-yl)-1H-indazol-5-yl)pyridin-3-yl)-N,N-dimethylmethanamine]	6.81
CN(C)Cc1cncc(-c2cc(F)c3[nH]nc(-c4nc5c(-c6ccsc6)ccnc5[nH]4)c3c2)c1 [Compound 741, 1-(5-(7-Fluoro-3-(7-(thiophen-3-yl)-3H-imidazo[4,5-b]pyridin-2-yl)-1H-indazol-5-yl)pyridin-3-yl)-N,N-dimethylmethanamine]	6.03
CN(C)Cc1cncc(-c2cc(F)c3[nH]nc(-c4nc5c(-c6cc(F)cc(CNS(C)(=O)=O)c6)ccnc5[nH]4)c3c2)c1 [Compound 897, N-(3-(2-(5-(5-((Dimethylamino)methyl)pyridin-3-yl)-7-fluoro-1H-indazol-3-yl)-3H-imidazo[4,5-b]pyridin-7-yl)-5-fluorobenzyl)methanesulfonamide]	7.13
CN(C)Cc1cncc(-c2cc3c(-c4nc5c(-c6cccc(F)c6)ccnc5[nH]4)n[nH]c3cc2F)c1 [Compound 949, 1-(5-(6-Fluoro-3-(7-(3-fluorophenyl)-3H-imidazo[4,5-b]pyridin-2-yl)-1H-indazol-5-yl)pyridin-3-yl)-N,N-dimethylmethanamine]	< 5.00
CN(C)Cc1cncc(-c2cc3c(-c4nc5c(-c6ccsc6)ccnc5[nH]4)n[nH]c3cc2F)c1 [Compound 1209, 1-(5-(6-Fluoro-3-(7-(thiophen-3-yl)-3H-imidazo[4,5-b]pyridin-2-yl)-1H-indazol-5-yl)pyridin-3-yl)-N,N-dimethylmethanamine]	< 5.00
CN(C)Cc1cncc(-c2cc3c(-c4nc5c(-c6cc(F)cc(CNS(C)(=O)=O)c6)ccnc5[nH]4)n[nH]c3cc2F)c1 [Compound 1365, N-(3-(2-(5-(5-((Dimethylamino)methyl)pyridin-3-yl)-6-fluoro-1H-indazol-3-yl)-3H-imidazo[4,5-b]pyridin-7-yl)-5-fluorobenzyl)methanesulfonamide]	6.09
CN(C)Cc1cncc(-c2ccc3[nH]nc(-c4nc5c(-c6cccc(F)c6)ccnc5[nH]4)c3c2F)c1 [Compound 1417, 1-(5-(4-Fluoro-3-(7-(3-fluorophenyl)-3H-imidazo[4,5-b]pyridin-2-yl)-1H-indazol-5-yl)pyridin-3-yl)-N,N-dimethylmethanamine]	6.03
CN(C)Cc1cncc(-c2ccc3[nH]nc(-c4nc5c(-c6ccsc6)ccnc5[nH]4)c3c2F)c1 [Compound 1677, 1-(5-(4-Fluoro-3-(7-(thiophen-3-yl)-3H-imidazo[4,5-b]pyridin-2-yl)-1H-indazol-5-yl)pyridin-3-yl)-N,N-dimethylmethanamine]	6.17
CN(C)Cc1cncc(-c2ccc3[nH]nc(-c4nc5c(-c6cc(F)cc(CNS(C)(=O)=O)c6)ccnc5[nH]4)c3c2F)c1 [Compound 1833, N-(3-(2-(5-(5-((Dimethylamino)methyl)pyridin-3-yl)-4-fluoro-1H-indazol-3-yl)-3H-imidazo[4,5-b]pyridin-7-yl)-5-fluorobenzyl)methanesulfonamide]	6.11
Fc1cccc(-c2ccnc3[nH]c(-c4n[nH]c5ccc(-c6cncc(OCCN7CCCC7)c6)cc45)nc23)c1 [Compound 1882, 7-(3-Fluorophenyl)-2-(5-(5-(2-(pyrrolidin-1-yl)ethoxy)pyridin-3-yl)-1H-indazol-3-yl)-3H-imidazo[4,5-b]pyridine]	5.38
Fc1cccc(-c2ccnc3[nH]c(-c4n[nH]c5ccc(-c6cncc(OCc7ccccc7)c6)cc45)nc23)c1 [Compound 1886, 2-(5-(5-(Benzyloxy)pyridin-3-yl)-1H-indazol-3-yl)-7-(3-fluorophenyl)-3H-imidazo[4,5-b]pyridine]	< 5.00
CC(C)CC(=O)Nc1cncc(-c2ccc3[nH]nc(-c4nc5c(-c6cc(F)cc(OCCN(C)C)c6)ccnc5[nH]4)c3c2)c1 [Compound 2198, N-(5-(3-(7-(3-(2-(Dimethylamino)ethoxy)-5-fluorophenyl)-3H-imidazo[4,5-b]pyridin-2-yl)-1H-indazol-5-yl)pyridin-3-yl)-3-methylbutanamide]	6.74
